The text below walks through data of patent US20050047997A1, “Method for the evaluation of the efficiency of a therapeutic action upon the human organism” (priority 1997, published 2005).

Common to all, as to type: in vivo, human
Data set [1] concerns arterial pressure. The data set is described as follows: Arterial pressure monitoring in hypertension patients. Particulars: monitored every other day. The procedure:
(§1) Selected hypertension patients are divided into two groups. The reference group includes 48 patients and the experimental group includes 56 patients. Each group consists of 60% of females, the rest being males. All the patients in the same group differ in age by not more than 1 year. The patients from the experimental group are treated with a hypotensive medication belonging to calcium current blocking agents—Corinfar, (see […], lines from 1 to 3), while those from the reference group are treated with a medication that blocks angiotensin-transforming enzyme (ATE) Prestarium (see FIG. 3, lines from 4 to 6). The period from the beginning of the relapse till the inclusion of the patient into the experiment is chosen to be 2 days. The phase of the disease is selected to be hypertension of medium exacerbation. The prevailing disease localization is its cerebral variant, in other words, the variant characterized by prevailing damage of cerebral vessels. The initial level of the homeostasis characteristics is set by the characteristic of electrolytic homeostasis, i.e. the sodium level, and is equal to 140 mmol/l for both groups. The patients' arterial pressure was monitored every other day, which corresponded to the period of time that is characterized by a significant decrease in arterial pressure under the effect of ATE blocking agent. […]

Data set [2] can be described thus: Electrolytic homeostasis (sodium level) in treated hypertension patients. The following applies: initial level 140 mmol/l. The protocol:
as §1

Data set [3] relates to ulcerous defect. The data set is described as follows: Ulcer healing (cicatrization of ulcerous defect) in ulcer patients. The following applies: compared with the other group. The procedure: As a result, each group consists of patients of the same sex or features the same proportion of males and females who differ in age by not more than one year. […] Thus, patients with the stomach ulcer are ranked by the ulcerous defect localization with the accuracy of 1/9th of the stomach sections: cardia, subcardia, upper, middle and lower thirds of the stomach body, angle, anthral and prepyloric sections, pylorus. The initial surface area of the ulcerous defect is measured. Then the current stage (phase) of the disease: acute stage (the stage of ulcer forming), stationary stage or “plateau” and the stage of reparation proper (see FIG. 4) is determined for each patient on the basis of clinical, laboratory and instrumental indications. These phases characterize the period of time that passed since the beginning of relapse (exacerbation or start) of the disease till the patient was included into the clinical experiment. […]
The quantitative number of patients in groups must provide the statistical reliability of the results. In the given example the group treated with a reference medical preparation consisted of 73 patients, while the group treated with the medical preparation that had to be evaluated consisted of 81 patients. […] The control time is determined for the selected groups of ulcer patients. […]

The nature of data set [4]: Homeostasis (lipid metabolism) indicators in treated ulcer patients. The procedure: As a result, each group consists of patients of the same sex or features the same proportion of males and females who differ in age by not more than one year. […] Thus, patients with the stomach ulcer are ranked by the ulcerous defect localization with the accuracy of 1/9th of the stomach sections: cardia, subcardia, upper, middle and lower thirds of the stomach body, angle, anthral and prepyloric sections, pylorus. The initial surface area of the ulcerous defect is measured. Then the current stage (phase) of the disease: acute stage (the stage of ulcer forming), stationary stage or “plateau” and the stage of reparation proper (see FIG. 4) is determined for each patient on the basis of clinical, laboratory and instrumental indications. These phases characterize the period of time that passed since the beginning of relapse (exacerbation or start) of the disease till the patient was included into the clinical experiment. The method in question uses homeostasis indications, particularly those related to lipid metabolism, for the evaluation of the efficiency of the therapeutic action. Based on the above principle, the patients are divided into subgroups according to the following classification: • cholesterol (CS); • high density lipoproteins (HDLP); • low density lipoproteins (LDLP); • very low density lipoproteins (VLDLP); • triglycerides (TG); • atherogenicity factor (AF).
The quantitative number of patients in groups must provide the statistical reliability of the results. In the given example the group treated with a reference medical preparation consisted of 73 patients, while the group treated with the medical preparation that had to be evaluated consisted of 81 patients. The reference group was treated with a medication belonging to proton pump blocking agent (for example, Zerocid), while the experimental group was treated with a medication belonging to antacids (for example, Maalox). If the studied medications are only to be ranked by the efficiency of their action upon the organism rather than compared with each other, placebo can be used as a reference medication. The control time is determined for the selected groups of ulcer patients. The control is performed individually for each ranked experimental group. […]
The initial efficiency criterion was a complete healing of ulcerous defect combined with the dynamics of the change in homeostasis characteristics. The individual temporal norm was represented by a time interval calculated on the basis of individual characteristics of the ulcer healing process that corresponded to the individual characteristics of the homeostasis indications, for instance, to the characteristics of lipid metabolism calculated by the known formulas. […]

Consider `COC(=O)C1=C(C)NC(C)=C(C(=O)OC)C1c1ccccc1[N+](=O)[O-]` [Corinfar], for which the “arterial pressure change as a result of treatment” value in data set [1] is listed as “decreased by comparable values”. Also, in data set [2], the “level of sodium after treatment” value came to 146000 µM.

With `CCC[C@H](N[C@@H](C)C(=O)N1[C@H](C(=O)O)C[C@@H]2CCCC[C@@H]21)C(=O)OCC` [Prestarium], the “arterial pressure change as a result of treatment” value in data set [1] is reported as “decreased by comparable values”. Besides, the “level of sodium after treatment” value in data set [2] was 137000 µM.

For `COc1ccc2[nH]c([S+]([O-])Cc3ncc(C)c(OC)c3C)nc2c1` (stereo not drawn) [Zerocid], the “cicatrization of ulcerous defects” value in data set [3] is given as “faster”. Also, the “effect upon the atherogenesis and oncogenesis judged from lipid spectrum indications” value in data set [4] is on record as “clearly negative effect”. Moreover, in data set [4] (FIG. 2a, lines 1-16), the HDLP indicators entry is on record as “decreasing”. In data set [4] (during treatment), the “atherogenicity factor (AF)” value is “increasing” and the “level of triglycerides (TG)” value is given as “increasing”.
